According to PMC12748989 (Nature Communications, 2025):

Key:
PBMC = conditions: 12.5 µM

Structure (SMILES)	Average (percentage cell inhibition), Dmastoparan MDA-MB231 12.5uM (MDA-MB-231 cells)	Average (percentage cell inhibition), Mastoparan PBMC (PBMC)	Average 6.5uM (MDA-MB-231 cells)
CC[C@H](C)[C@H](N)C(=O)N[C@@H](CC(N)=O)C(=O)N[C@@H](CC(C)C)C(=O)N[C@@H](CCCCN)C(=O)N[C@@H](C)C(=O)N[C@@H](CC(C)C)C(=O)N[C@@H](C)C(=O)N[C@@H](C)C(=O)N[C@@H](CC(C)C)C(=O)N[C@@H](C)C(=O)N[C@@H](CCC(N)=O)C(=O)N[C@@H](CCCCN)C(=O)N[C@H](C(=O)N[C@@H](CC(C)C)C(N)=O)[C@@H](C)CC [Q11]	41.2471%	14.9552%	
CC[C@H](C)[C@H](N)C(=O)N[C@@H](CC(N)=O)C(=O)N[C@@H](CCC(=O)O)C(=O)N[C@@H](CCCCN)C(=O)N[C@@H](C)C(=O)N[C@@H](CC(C)C)C(=O)N[C@@H](C)C(=O)N[C@@H](C)C(=O)N[C@@H](CC(C)C)C(=O)N[C@@H](C)C(=O)N[C@@H](CCCCN)C(=O)N[C@@H](CCCCN)C(=O)N[C@H](C(=O)N[C@@H](CC(C)C)C(N)=O)[C@@H](C)CC [E3]	14.5974%	5.899%	
CC[C@H](C)[C@H](N)C(=O)N[C@@H](CC(N)=O)C(=O)N[C@@H](CC(C)C)C(=O)N[C@@H](CCCCN)C(=O)N[C@@H](C)C(=O)N[C@@H](CC(C)C)C(=O)N[C@@H](C)C(=O)N[C@@H](C)C(=O)N[C@@H](CC(C)C)C(=O)N[C@@H](C)C(=O)N[C@@H](CCCCN)C(=O)N[C@@H](CCCCN)C(=O)N[C@H](C(=O)N[C@H](C(N)=O)[C@@H](C)CC)[C@@H](C)CC [I14]	33.7751%	14.5337%	
CC[C@H](C)[C@H](N)C(=O)N[C@@H](CC(N)=O)C(=O)N[C@@H](CC(C)C)C(=O)N[C@@H](CCCCN)C(=O)N[C@@H](CCCCN)C(=O)N[C@@H](CC(C)C)C(=O)N[C@@H](C)C(=O)N[C@@H](C)C(=O)N[C@@H](CC(C)C)C(=O)N[C@@H](C)C(=O)N[C@@H](CCCCN)C(=O)N[C@@H](CCCCN)C(=O)N[C@H](C(=O)N[C@@H](CC(C)C)C(N)=O)[C@@H](C)CC [K5]	39.1552%	10.3023%	
CC[C@H](C)[C@H](N)C(=O)N[C@@H](CC(N)=O)C(=O)N[C@@H](CC(C)C)C(=O)N[C@@H](CCCCN)C(=O)N[C@@H](C)C(=O)N[C@@H](CC(C)C)C(=O)N[C@@H](C)C(=O)N[C@@H](C)C(=O)N[C@@H](CC(C)C)C(=O)N[C@@H](Cc1ccc(O)cc1)C(=O)N[C@@H](CCCCN)C(=O)N[C@@H](CCCCN)C(=O)N[C@H](C(=O)N[C@@H](CC(C)C)C(N)=O)[C@@H](C)CC [Y10]	27.1013%	11.2083%	
CC[C@H](C)[C@H](N)C(=O)N[C@@H](CC(N)=O)C(=O)N[C@@H](CC(C)C)C(=O)N[C@@H](CCCCN)C(=O)N[C@@H](C)C(=O)N[C@@H](CC(C)C)C(=O)N[C@@H](C)C(=O)N[C@@H](C)C(=O)N[C@@H](CC(C)C)C(=O)N[C@@H](C)C(=O)N[C@@H](CCCNC(=N)N)C(=O)N[C@@H](CCCCN)C(=O)N[C@H](C(=O)N[C@@H](CC(C)C)C(N)=O)[C@@H](C)CC [R11]	37.1061%	5.503%	
CC[C@H](C)[C@H](N)C(=O)N[C@@H](CC(N)=O)C(=O)N[C@@H](CC(C)C)C(=O)N[C@@H](CCCCN)C(=O)N[C@@H](CC(C)C)C(=O)N[C@@H](CC(C)C)C(=O)N[C@@H](C)C(=O)N[C@@H](C)C(=O)N[C@@H](CC(C)C)C(=O)N[C@@H](C)C(=O)N[C@@H](CCCCN)C(=O)N[C@@H](CCCCN)C(=O)N[C@H](C(=O)N[C@@H](CC(C)C)C(N)=O)[C@@H](C)CC [L5]	46.6396%	25.5295%	
CC[C@H](C)[C@H](N)C(=O)N[C@@H](CC(N)=O)C(=O)N[C@H](C(=O)N[C@@H](CCCCN)C(=O)N[C@@H](C)C(=O)N[C@@H](CC(C)C)C(=O)N[C@@H](C)C(=O)N[C@@H](C)C(=O)N[C@@H](CC(C)C)C(=O)N[C@@H](C)C(=O)N[C@@H](CCCCN)C(=O)N[C@@H](CCCCN)C(=O)N[C@H](C(=O)N[C@@H](CC(C)C)C(N)=O)[C@@H](C)CC)[C@@H](C)O [T3]	21.7833%	8.955%	
CC[C@H](C)[C@H](N)C(=O)N[C@@H](CC(N)=O)C(=O)N[C@@H](CC(C)C)C(=O)N[C@@H](CCCCN)C(=O)N[C@@H](CO)C(=O)N[C@@H](CC(C)C)C(=O)N[C@@H](C)C(=O)N[C@@H](C)C(=O)N[C@@H](CC(C)C)C(=O)N[C@@H](C)C(=O)N[C@@H](CCCCN)C(=O)N[C@@H](CCCCN)C(=O)N[C@H](C(=O)N[C@@H](CC(C)C)C(N)=O)[C@@H](C)CC [S5]	26.0666%	9.929%	
CC[C@H](C)[C@H](N)C(=O)N[C@@H](CC(N)=O)C(=O)N[C@@H](Cc1ccc(O)cc1)C(=O)N[C@@H](CCCCN)C(=O)N[C@@H](C)C(=O)N[C@@H](CC(C)C)C(=O)N[C@@H](C)C(=O)N[C@@H](C)C(=O)N[C@@H](CC(C)C)C(=O)N[C@@H](C)C(=O)N[C@@H](CCCCN)C(=O)N[C@@H](CCCCN)C(=O)N[C@H](C(=O)N[C@@H](CC(C)C)C(N)=O)[C@@H](C)CC [Y3]	39.9685%	5.097%	
CC[C@H](C)[C@H](N)C(=O)N[C@@H](CC(N)=O)C(=O)N[C@@H](CC(C)C)C(=O)N[C@@H](CCCCN)C(=O)N[C@@H](C)C(=O)N[C@@H](CC(C)C)C(=O)N[C@H](C(=O)N[C@@H](C)C(=O)N[C@@H](CC(C)C)C(=O)N[C@@H](C)C(=O)N[C@@H](CCCCN)C(=O)N[C@@H](CCCCN)C(=O)N[C@H](C(=O)N[C@@H](CC(C)C)C(N)=O)[C@@H](C)CC)C(C)C [V7]	57.1739%	22.1422%	
CC[C@H](C)[C@H](N)C(=O)N[C@@H](CC(N)=O)C(=O)N[C@@H](CC(C)C)C(=O)N[C@@H](CCCCN)C(=O)N[C@@H](C)C(=O)N[C@@H](CC(C)C)C(=O)N[C@@H](C)C(=O)N[C@@H](C)C(=O)N[C@@H](CC(C)C)C(=O)N[C@@H](C)C(=O)N[C@@H](CCCCN)C(=O)N[C@@H](CCCCN)C(=O)N[C@H](C(=O)NCC(N)=O)[C@@H](C)CC [G14]	28.3643%	3.069%	
CC[C@H](C)[C@H](N)C(=O)N[C@@H](CC(N)=O)C(=O)N[C@@H](CC(C)C)C(=O)N[C@@H](CCCCN)C(=O)N[C@@H](C)C(=O)N[C@@H](CC(C)C)C(=O)N[C@@H](C)C(=O)N[C@@H](C)C(=O)N[C@@H](CC(C)C)C(=O)N[C@@H](C)C(=O)N[C@@H](CCCCN)C(=O)N[C@H](C(=O)N[C@H](C(=O)N[C@@H](CC(C)C)C(N)=O)[C@@H](C)CC)C(C)C [V12]	51.0657%	18.2596%	
CC[C@H](C)[C@H](N)C(=O)N[C@@H](CC(N)=O)C(=O)N[C@@H](CC(C)C)C(=O)N[C@@H](CCCCN)C(=O)N[C@@H](C)C(=O)N[C@@H](CC(C)C)C(=O)N[C@@H](C)C(=O)N[C@@H](C)C(=O)N[C@@H](CC(C)C)C(=O)NCC(=O)N[C@@H](CCCCN)C(=O)N[C@@H](CCCCN)C(=O)N[C@H](C(=O)N[C@@H](CC(C)C)C(N)=O)[C@@H](C)CC [G10]	20.1107%	11.4267%	
CC[C@H](C)[C@H](N)C(=O)N[C@@H](CC(N)=O)C(=O)N[C@@H](CC(C)C)C(=O)N[C@@H](CCCCN)C(=O)N[C@@H](C)C(=O)N[C@@H](CC(C)C)C(=O)N[C@@H](C)C(=O)N[C@@H](C)C(=O)N[C@@H](CC(C)C)C(=O)N[C@@H](C)C(=O)N[C@@H](CCCCN)C(=O)N[C@@H](C)C(=O)N[C@H](C(=O)N[C@@H](CC(C)C)C(N)=O)[C@@H](C)CC [A12]	42.9356%	17.0691%	
CC[C@H](C)[C@H](N)C(=O)N[C@@H](CC(N)=O)C(=O)N[C@@H](CC(C)C)C(=O)N[C@@H](CCC(N)=O)C(=O)N[C@@H](C)C(=O)N[C@@H](CC(C)C)C(=O)N[C@@H](C)C(=O)N[C@@H](C)C(=O)N[C@@H](CC(C)C)C(=O)N[C@@H](C)C(=O)N[C@@H](CCCCN)C(=O)N[C@@H](CCCCN)C(=O)N[C@H](C(=O)N[C@@H](CC(C)C)C(N)=O)[C@@H](C)CC [Q4]	34.9808%	-3.9555%	
CC[C@H](C)[C@H](N)C(=O)N[C@@H](CC(N)=O)C(=O)N[C@H](C(=O)N[C@@H](CCCCN)C(=O)N[C@@H](C)C(=O)N[C@@H](CC(C)C)C(=O)N[C@@H](C)C(=O)N[C@@H](C)C(=O)N[C@@H](CC(C)C)C(=O)N[C@@H](C)C(=O)N[C@@H](CCCCN)C(=O)N[C@@H](CCCCN)C(=O)N[C@H](C(=O)N[C@@H](CC(C)C)C(N)=O)[C@@H](C)CC)C(C)C [V3]	35.8976%	-4.825%	
CC[C@H](C)[C@H](N)C(=O)N[C@@H](CC(N)=O)C(=O)N[C@@H](CC(C)C)C(=O)N[C@@H](CCCCN)C(=O)N[C@@H](Cc1c[nH]c2ccccc12)C(=O)N[C@@H](CC(C)C)C(=O)N[C@@H](C)C(=O)N[C@@H](C)C(=O)N[C@@H](CC(C)C)C(=O)N[C@@H](C)C(=O)N[C@@H](CCCCN)C(=O)N[C@@H](CCCCN)C(=O)N[C@H](C(=O)N[C@@H](CC(C)C)C(N)=O)[C@@H](C)CC [W5]	97.3063%	88.7179%	75.0546%
CC[C@H](C)[C@H](N)C(=O)N[C@@H](CC(N)=O)C(=O)N[C@@H](CC(C)C)C(=O)N[C@@H](CCCCN)C(=O)N[C@@H](C)C(=O)N[C@@H](CC(C)C)C(=O)N[C@@H](C)C(=O)N[C@@H](CCC(=O)O)C(=O)N[C@@H](CC(C)C)C(=O)N[C@@H](C)C(=O)N[C@@H](CCCCN)C(=O)N[C@@H](CCCCN)C(=O)N[C@H](C(=O)N[C@@H](CC(C)C)C(N)=O)[C@@H](C)CC [E8]	39.5903%	13.1597%	
